US20130053372A1, “5-HT RECEPTOR MODULATORS” (Cambridge Enterprise Limited, priority 2010, published 2013)

Tests used:
[1] = biological target: T1, gp5-HT1B (Cavia porcellus, UniProt O08892); test: Guinea-pig iliac artery functional assay at gp5-HT1B (GPI); format: cell-based; set-up: from tissue; host or cells: guinea-pig common iliac artery segments; conditions: classified as antagonism, agonism or no effect at 10 μM, against 5-nonyloxytryptamine contraction; monohydrochloride salt
Procedure: Protocol for Determination of Efficacy at gp5-HT1B Receptors in the Guinea-Pig Iliac Artery. (GPI)
Guinea-pig common iliac artery segments (1.0-1.5 mm long) from Dunkin-Harley guinea-pigs (250 g-500 g) were mounted under normalized tension in oxygenated (95% O2; 5% CO2) Krebs-Henseleit solution (NaCl, 118 mM; KCl, 4.7 mM; MgSO4, 1.2 mM; KH2PO4, 1.2 mM; NaHCO3, 25 mM; CaCl2, 2.5 mM; D-glucose, 11 mM; and with indomethacin, 10 μM). After 30 min equilibration, the vessels were precontracted with 5-HT (10 μM) and tested for endothelial integrity by administration of carbachol (10 μM), endothelium-intact vessels (relaxation ≧90% to carbachol) were used for the experiments. Concentration/contraction curves to cumulative addition of 5-nonyloxytryptamine (5-NOT; a 5-HT1B receptor-selective agonist) were constructed in 25 mM KCl Krebs-Henseleit solution (standard Krebs-Henseleit solution in which the KCl concentration was increased to 25 mM by equimolar substitution of NaCl). Vessels were incubated with putative antagonists for 30 min before construction of a concentration/contraction curve for 5-NOT. Contractile responses were expressed as a percentage of the tone induced by Krebs-Henseleit solution containing 90 mM KCl after substitution of an equivalent amount of NaCl with KCl in standard Krebs-Henseleit solution. Data were analysed using non-linear procedures by fitting to a logistic equation: E=(Rmax.[A]^nH)/EC50^nH+[A]^nH), where E is the contraction induced, [A] the concentration of the agonist, Rmax the maximal increase in tension induced, nH the slope function and EC50 the concentration of producing half the maximal contractile tone. Potency was assessed using the Gaddum equation: […] where [A] is the concentration of the putative antagonist and Ka its affinity constant at the 5-HT1B receptor. Compounds are classified as having antagonism, agonism or no effect at a dose concentration of 10 μM.

[2] = biological target: T1, gp5-HT1B; test: Guinea-pig frontal cortex membrane binding at gp5-HT1B (GPF); set-up: from tissue; host or cells: guinea-pig frontal cortex membranes; conditions: monohydrochloride salt; for Kd: Kd from IC50 by Cheng & Prusoff, read-out: (GPF) Guinea-Pig Frontal Cortex membrane binding Affinity at gp5-HT1B Kd; for IC50: [3H]GR125743 displacement
Procedure: Binding Protocol for Determination of Affinity in gp5-HY1B in Guinea-Pig Frontal Cortex Membranes. (GPF)
Guinea-pig frontal cortex membranes were resuspended in a buffer (50 mM Tris-HCl, 4 mM MgCl, 2.5 mM CaCl2, 1 mM EDTA and 120 mM NaCl pH 7.4) to a final concentration of 5-6 μg protein μl^−1. Receptor binding was initiated by the addition of membranes and carried out in a volume of 0.5 ml at 27° C. Non-specific binding was determined by pre-incubation for 15 min with 10 μM SB214461 (N-(3-(2-(dimethylamino)ethoxy)-4-methoxyphenyl)-2′-methyl-4′-(5-methyl-1,2,4-oxadiazol-3-yl)biphenyl-4-carboxamide, Eur. J. Pharmacol. 1997, 331, 169-174). The amount of binding in the presence or absence of a competing ligand was determined by incubation at 27° C. for 60 min with 0.6 nM [N-methyl ^3H] GR125743 (GE Life Science Products). Incubation was terminated by rapid vacuum filtration through GF/B glass fibre filters that had been presoaked in 3% polyethylenimine. Samples were washed 3 times with 1.5 ml ice-cold buffer (50 mM Tris-HCl, pH 7.4) and bound radioactivity determined by liquid scintillation counting after leaving the filters in contact with the scintillation fluid for at least 4 h before counting for 5 min in a liquid scintillation analyzer.
(§1) Specific binding was determined as B—BNS/(BTot—BNS) where B is the binding in the presence of a given competing ligand, BNS is the non-specific binding of radioligand (i.e. the binding in the presence of 10 μM SB214461), and BTot is the amount of binding of radioligand in the absence of a competing ligand. Data for specific binding as a function of the concentration of competing ligand were fitted to a single-site model to obtain a value for IC50. Kd values were derived from IC50 by the Cheng & Prusoff equation (Cheng Y, Prusoff W H (1973). Biochem Pharmacol 22, 3099-3108).

[3] = biological target: human h5-HT1B receptor (Homo sapiens, UniProt P28222); test: Binding affinity at human h5-HT1B receptors (HBA); conditions: [3H]GR125743 displacement; Kd from IC50 by Cheng & Prusoff; monohydrochloride salt
Procedure: Binding Protocol for Determination of Binding Affinity at Human […] Receptors (HBA)
Membrane preparations (5 μg in a volume of 100 μl per sample) expressing the human h5-HT1B receptor were preincubated at 27° C. in buffer (50 mM Tris HCl, 10 mM MgCl2 and 1 mM EDTA; pH 7.4) with or without 10 μM SB214461 (N-(3-(2-(dimethylamino)ethoxy)-4-methoxyphenyl)-2′-methyl-4′-(5-methyl-1,2,4-oxadiazol-3-yl)biphenyl-4-carboxamide, Eur. J. Pharmacol. 1997, 331, 169-174) (to determine non-specific binding). Receptor binding was determined by incubation at 27° C. with 3.5 nM [N-methyl-^3H] GR125743 (GE Life Science Products) for 90 min. The incubations were terminated by rapid vacuum filtration through GF/B glass fibre filters that had been presoaked in 3% polyethylenimine. Samples were washed 3 times with 1.5 ml ice-cold buffer (50 mM Tris-HCl, pH 7.4) and bound radioactivity determined by liquid scintillation counting after leaving the filters in contact with the scintillation fluid (4 ml Quicksafe ‘A’, Zinsser, Maidenhead, UK) for at least 4 h before counting for 5 min in a liquid scintillation analyzer.
as §1, with “[…].” for “IC50.”

[4] = biological target: T2, rat r5-HT1B receptors (Rattus norvegicus, UniProt P28564); test: Binding affinity at rat r5-HT1B receptors, rat cerebral cortex membrane binding (RBA); conditions: value in parentheses; monohydrochloride salt
T2 construct: from tissue
Procedure: Binding Protocol for Determination of Affinity at rat r5-HT 1B Receptors (RBA)
This binding affinity protocol was performed according to standard conditions disclosed in Eur. J. Pharmacol. 1985, 118, 1-12.

Sequence of human h5-HT1B receptor (P28222 whole entry): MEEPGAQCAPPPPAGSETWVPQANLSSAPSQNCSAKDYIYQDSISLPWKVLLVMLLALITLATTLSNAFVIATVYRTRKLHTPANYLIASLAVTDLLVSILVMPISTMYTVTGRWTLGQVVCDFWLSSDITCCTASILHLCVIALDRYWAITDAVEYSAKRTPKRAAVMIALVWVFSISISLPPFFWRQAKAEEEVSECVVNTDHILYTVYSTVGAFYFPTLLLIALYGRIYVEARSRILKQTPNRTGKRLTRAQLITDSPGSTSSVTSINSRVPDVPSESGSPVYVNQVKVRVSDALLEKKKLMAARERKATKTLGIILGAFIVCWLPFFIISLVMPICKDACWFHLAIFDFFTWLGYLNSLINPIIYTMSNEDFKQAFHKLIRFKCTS
T1 sequence (O08892 whole entry): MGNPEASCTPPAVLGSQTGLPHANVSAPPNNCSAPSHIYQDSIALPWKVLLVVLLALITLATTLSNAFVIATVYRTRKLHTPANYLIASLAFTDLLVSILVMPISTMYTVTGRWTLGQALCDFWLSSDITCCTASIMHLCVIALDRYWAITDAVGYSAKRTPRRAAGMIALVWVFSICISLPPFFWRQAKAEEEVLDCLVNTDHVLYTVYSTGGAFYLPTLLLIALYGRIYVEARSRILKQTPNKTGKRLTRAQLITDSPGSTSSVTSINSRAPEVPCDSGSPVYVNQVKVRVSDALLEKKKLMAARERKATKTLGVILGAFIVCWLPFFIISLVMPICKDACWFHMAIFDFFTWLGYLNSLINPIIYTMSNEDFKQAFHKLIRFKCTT
T2 sequence (P28564 whole entry): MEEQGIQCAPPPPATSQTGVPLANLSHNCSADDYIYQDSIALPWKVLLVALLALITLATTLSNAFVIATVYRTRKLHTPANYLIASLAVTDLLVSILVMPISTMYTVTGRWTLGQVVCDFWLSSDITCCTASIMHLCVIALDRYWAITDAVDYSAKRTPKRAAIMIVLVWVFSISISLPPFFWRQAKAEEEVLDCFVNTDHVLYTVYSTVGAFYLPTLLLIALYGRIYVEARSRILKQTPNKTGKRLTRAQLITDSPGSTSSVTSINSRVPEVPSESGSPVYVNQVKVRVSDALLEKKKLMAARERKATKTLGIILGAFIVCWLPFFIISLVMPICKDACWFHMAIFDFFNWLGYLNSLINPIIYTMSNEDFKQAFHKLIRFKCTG

| SMILES | (GPI) Guinea-Pig Iliac Artery functional assay at gp5-HT1B [1] | Kd [2] | IC50 [2] | Kd [3] | IC50 [4] |
| --- | --- | --- | --- | --- | --- |
| COc1ccc(N2CCCC2=O)cc1N1CCC(N(C)C)CC1 [13e, 1-(3-(4-(dimethylamino)piperidin-1-yl)-4-methoxyphenyl)pyrrolidin-2-one, reference compound] | Antagonist |  |  |  |  |
| COc1ccc(N2CCCC2=O)cc1N1CCN(C)CC1 [Example 5a, 1-(4-methoxy-3-(4-methylpiperazin-1-yl)phenyl)pyrrolidin-2-one] | Antagonist | 15000 nM | 30000 nM |  |  |
| COc1ccc(N2CCOC2=O)cc1N1C[C@@H](C)N[C@@H](C)C1 [Example 13d, 3-(3-((3R,5S)-3,5-dimethylpiperazin-1-yl)-4-methoxyphenyl)oxazolidin-2-one] | No effect |  |  |  |  |
| COc1ccc(N2CCCC2=O)cc1N1C[C@@H](C)N[C@@H](C)C1 [Example 13a, 1-(3-((3R,5S)-3,5-dimethylpiperazin-1-yl)-4-methoxyphenyl)pyrrolidin-2-one] | Antagonist |  |  |  |  |
| COc1ccc(N2CCCC2=O)cc1N1CCCN(C)CC1 [Example 13c, 1-(4-methoxy-3-(4-methyl-1,4-diazepan-1-yl)phenyl)pyrrolidin-2-one] | Antagonist |  |  |  |  |
| CN1CCN(c2cc(N3CCOC3=O)cc3ccoc23)CC1 [Example 47a, 3-(7-(4-methylpiperazin-1-yl)benzofuran-5-yl)oxazolidin-2-one] | Antagonist | 225 nM | 450 nM | 13500 nM |  |
| COc1ccc(N2CCCC2=O)cc1N(C)CCN(C)C [13f, 1-(3-((2-(dimethylamino)ethyl)(methyl)amino)-4-methoxyphenyl)pyrrolidin-2-one, reference compound] | No effect |  |  |  |  |
| CN1CCN(c2cc(N3CCCC3=O)ccc2F)CC1 [Example 30, 1-(4-fluoro-3-(4-methylpiperazin-1-yl)phenyl)pyrollidin-2-one] | Antagonist | 2000 nM | 4000 nM |  |  |
| CN1CCN(c2cc(N3CCCC3=O)cc3ccoc23)CC1 [Example 45, 1-(7-(4-methylpiperazin-1-yl)benzofuran-5-yl)pyrrolidin-2-one] | Antagonist | 200 nM | 400 nM | 4500 nM |  |
| C[C@@H]1CN(c2cc(N3CCCC3=O)cc3c2OCC3)C[C@H](C)N1 [Example 26b, 1-(7-((3S,5R)-3,5-dimethylpiperazin-1-yl)-2,3-dihydrobenzofuran-5-yl)pyrrolidin-2-one] |  |  |  |  | 9600 nM |
| COc1ccc(N2CCOC2=O)cc1N1CCN(C)CC1 [Example 13b, 3-(4-methoxy-3-(4-methylpiperazin-1-yl)phenyl)oxazolidin-2-one] | Antagonist |  |  |  |  |
| CN1CCN(c2cc(N3CCNS3(=O)=O)cc3ccoc23)CC1 [Example 50a, 2-(7-(4-methylpiperazin-1-yl)benzofuran-5-yl)-1,1-dioxo-1,2,5-thiadiazolidine] | Antagonist | 700 nM | 1400 nM |  | 860 nM |
| COc1ccc(N2CCCS2(=O)=O)cc1N1CCCN(C)CC1 [Example 18b, 2-(4-methoxy-3-(4-methyl-1,4-diazepan-1-yl)phenyl)-1,1-dioxoisothiazolidine] |  |  |  |  | 12000 nM |
| COC(=O)N1CCN(c2cc(N3CCN(C)CC3)c3occc3c2)S1(=O)=O [Example 49a, methyl 5-(7-(4-methylpiperazin-1-yl)benzofuran-5-yl)-1,1-dioxo-1,2,5-thiadiazolidine-2-carboxylate] | Antagonist | 230 nM | 460 nM | 1800 nM |  |
